# Laboratory results taken from patent US20110245323A1, “RIG-Like Helicase Innate Immunity Inhibits VEGF-Induced Tissue Responses” (Yale University, priority 2006, published 2011).
# “Also recorded” adds a separate entry of the source.
# Legend:
# Type in all cases: in vivo, mouse
# transgenic hVEGF = assay: BAL levels of transgenic VEGF by ELISA; settings: Tg+ mice, Poly(I:C) vs vehicle; doses <30 μg
# Source text: WT and CC10-rtTA-VEGF mice were used in these studies. The latter used the Clara cell 10-kDa protein (CC10) promoter and two transgenic constructs to target VEGF to the lung in an externally regulatable fashion. The human (h) VEGF165 transgene in these mice was activated via the administration of doxycycline (dox) as previously described (Lee et al., 2004, Nat Med 10:1095-1103). In the wild type (WT) mice on normal or dox water and the Tg+ mice on normal water, hVEGF levels in bronchoalveolar lavage fluids (BAL) were <10 pg/ml. Increased levels of BAL VEGF were noted within 24 hours and steady state levels between 0.5 and 1.2 ng/ml were seen after 1 week of dox administration (FIG. 28).
# (§1) To define the effects of Poly(I:C) a number of protocols were employed. In most experiments, a pretreatment-2 week protocol was employed. In these experiments, WT and Tg+ mice were treated with Poly(I:C) (30 μg in 50 lambda unless otherwise indicated; Amersham Biosciences, N.J.) or vehicle control via nasal aspiration and transgene activation was accomplished via the administration of dox (0.5 mg/ml) in the animal's drinking water 24 hours later. The Poly(I:C) was administered every other day and the dox was administered continuously for up to 2 weeks.
# (§2) ELISA assay kits for VEGF and IL-13 were purchased from R&D Systems (Minneapolis, Minn.).
# [1] = test system: Erk, FAK, Akt, and eNOS signaling pathways; assay: VEGF signaling in lung (eNOS/iNOS mRNA, immunoblot of Erk, FAK, Akt, eNOS); settings: Tg+ mice lung
# Protocol: These experiments used antibodies specific for Akt or phosphorylated (p) Akt (Danvers Mass.), FAK or pFAK (BioSource, International; Camarillo Calif.), PI3K or pPI3K (Cell Signalling), eNOS and iNOS (Santa Cruz BioTechnology, Santa Cruz Calif., USA) and MUC-5AC (NeoMarkers; Fremont). Western blot analysis was performed using standard protocols and visualized using the ECL system (Amersham Biosciences; Piscataway, N.J.).
# Total RNA was isolated from fresh mouse lung with TRIzol reagent (Invitrogen; Carlsbad, Calif.) following the manufacturer's instructions. Quantification of mouse lung mRNA was performed by quantitative real-time PCR using ABI 7500 fast real-time PCR system (Applied Biosystems; Foster City, Calif.) and power SYBR green PCR master mix kit with appropriately specific primers (Applied Biosystems; Foster City, Calif.).
# Lung lysates were subjected to immunoblot analysis using antibodies against phosphorylated (p) p-Erk, total Erk, p-Fak; total FAK; p-Akt, total Akt, peNOS and total eNOS (Cell Signaling, Beverly Mass.).
# [2] = test system: OVA sensitized and challenged mice; assay: Ovalbumin (OVA) sensitization and challenge Th2 inflammation model
# Protocol: Mice were sacrificed using intraperitoneal ketamine/xylazine injection and the trachea was cannulated and perfused with two 0.9 nil aliquots of cold saline. The cellular contents and BAL fluid were separated by centrifugation, the BAL cell number was quantitated and cell differential was assessed. The BAL fluid was stored in aliquots at −80° C.
# as §2
# (§3) OVA sensitization (with alum) and aerosol OVA challenge were undertaken as previously described (Lee et al., 2008, Am J Respir Cell Mol Biol 39:739-746; Lee et al., 2009, J Exp Med 206:1149-1166). The responses in mice that had been treated with Poly(I:C) or vehicle 24 hours before the aerosol challenge were compared. The BAL and tissue responses were evaluated 24 hours after antigen challenge.
# VEGFR1 = assay: VEGF receptor expression on dendritic and endothelial cells, FACS; settings: Tg+ mice, pretreatment-2 week protocol
# Protocol: (§4) Cell preparations were obtained from Tg− and Tg+ mice that had been randomized to receive Poly(I:C) or its vehicle control according to the pretreatment-2 week protocol described above. They were then incubated with antibodies against CD45, CD11c, MHCII, CD31, VEGFR1 (R & D Systems), VEGFR2 (Biolegends, San Diego, Calif. USA) or VEGFR3 (R&D Systems). FACS analysis was used to define the levels of receptor expression on dendritic cells (CD45+, CD11c+, MHCII+) and endothelial cells (CD45−, CD31+).
# VEGFR2 = assay: as above; settings: Tg+ mice, pretreatment-2 week protocol
# Protocol: as §4
# VEGFR3 = assay: as above; settings: Tg+ mice, pretreatment-2 week protocol
# Protocol: as §4
# MAVS = assay: Poly(I:C) effects in MAVS null mice
# Source text: (§5) TLR3^−/−-mice were a gift from Dr. Richard A. Flavell (Yale University), MAVS null mice were a gift from Dr Zijian J. Chen (U of Texas Southwestern) (Sun et al., 2006, Immunity 24:633-642), double stranded RNA-dependent protein kinase null mutant mice (PKR^−/−) were a gift from Dr. Bryan R. G. Williams (Cleveland Clinic Foundation) (Yang et al., 1995, Embo J 14:6095-6106) and IFNAR1 null mice were obtained from Dr. Richard Enelow (Dartmouth). These mice were bred with the VEGF Tg+ mice to generate transgenic mice with wild type (+/+) or null (−/−) TLR3, MAVS, PKR or IFNAR1 loci. Thus, in each given experiment, the effects in transgene negative (Tg−) and transgenic (Tg+) mice with WT and null TLR3, MAVS, PKR or IFNAR1 loci were compared.
# as §1, §3
# PKR = assay: Poly(I:C) regulation of VEGF responses in PKR null VEGF Tg+ mice; settings: angiogenesis and dye extravasation
# Source text: as §5, §1
substance,measurement,setting,value
polyinosinic-polycytidylic acid [Poly(I:C)],levels of production of transgenic VEGF in BAL fluids,transgenic hVEGF,did not alter
same,"VEGF activation/phosphorylation of Erk, FAK, Akt and eNOS","[1]; 30 μg pretreatment, 2 weeks",significantly decreased
same,VEGF-induced eNOS and iNOS mRNA accumulation and AKT phosphorylation/activation,[1]; p<0.05,significant decrease
same,OVA-induced cytokine response (BAL IL-13),[2],significant decrease
same,"OVA-induced inflammatory response (BAL total cell, macrophage, eosinophil, lymphocyte recovery)",[2]; Poly(I:C) 24 hours before aerosol challenge,significant decrease; also recorded: abrogated
same,expression of VEGFR1 on dendritic cells and endothelial cells,VEGFR1,inhibited
same,expression of VEGFR2 on dendritic cells and endothelial cells,VEGFR2,not
same,expression of VEGFR3 on dendritic cells and endothelial cells,VEGFR3,not
same,"ability to inhibit VEGF-induced angiogenic, edema, inflammatory and mucus responses in MAVS deficient animals","MAVS; 30 μg pretreatment, 2 weeks",abrogated
same,induction of Type I IFNs in mice with null MAVS loci,MAVS; BAL IFN-α and IFN-β,significantly ameliorated
same,inhibitory effects on OVA-induced inflammation in MAVS null animals,MAVS; OVA sensitization and challenge,abrogated
same,effects of Poly(I:C) in PKR null mice,PKR,not significantly altered
